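Results reflect a 48-hour exposure of cells in 96-well plates to compound at five concentrations. Here, GI50 denotes the concentration required for 50% inhibition of growth.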 Active and inactive are the calls of the source. No stated cut-off is given here; in the data, active = GI50 up to about 1.1 µM and inactive = higher.
Key:
Test in all cases: NCI-60 cell line screen, 48 h
786-0 = test system: 786-0
A498 = test system: A498
A549 = test system: A549
ACHN = test system: ACHN
BT-549 = test system: BT-549
CAKI-1 = test system: CAKI-1
CCRF-CEM = test system: CCRF-CEM
COLO 205 = test system: COLO 205
DLD-1 = test system: DLD-1
DMS-114 = test system: DMS-114
DU-145 = test system: DU-145
EKVX = test system: EKVX
HCC 2998 = test system: HCC 2998
HCT-116 = test system: HCT-116
HCT-15 = test system: HCT-15
HL-60 = test system: HL-60
HOP-18 = test system: HOP-18
HOP-62 = test system: HOP-62
HOP-92 = test system: HOP-92
HT-29 = test system: HT-29
Hs-578T = test system: Hs-578T
IGROV-1 = test system: IGROV-1
K562 = test system: K562
KM-20L2 = test system: KM-20L2
KM12 = test system: KM12
LOX IMVI = test system: LOX IMVI
LXFL 529 = test system: LXFL 529
M14 = test system: M14
M19-MEL = test system: M19-MEL
MCF7 = test system: MCF7
MDA-MB-231 = test system: MDA-MB-231
MDA-MB-435 = test system: MDA-MB-435
MDA-N = test system: MDA-N
MOLT-4 = test system: MOLT-4
Malme-3M = test system: Malme-3M
NCI-H226 = test system: NCI-H226
NCI-H23 = test system: NCI-H23
NCI-H460 = test system: NCI-H460
NCI-H522 = test system: NCI-H522
NCI/ADR-RES = test system: NCI/ADR-RES
OVCAR-3 = test system: OVCAR-3
OVCAR-4 = test system: OVCAR-4
OVCAR-5 = test system: OVCAR-5
OVCAR-8 = test system: OVCAR-8
PC-3 = test system: PC-3
RPMI-8226 = test system: RPMI-8226
RXF 393 = test system: RXF 393
RXF 631 = test system: RXF 631
SF-268 = test system: SF-268
SF-295 = test system: SF-295
SF-539 = test system: SF-539
SK-MEL-28 = test system: SK-MEL-28
SK-MEL-2 = test system: SK-MEL-2
SK-MEL-5 = test system: SK-MEL-5
SK-OV-3 = test system: SK-OV-3
SN12C = test system: SN12C
SNB-19 = test system: SNB-19
SNB-75 = test system: SNB-75
SNB-78 = test system: SNB-78
SR = test system: SR
SW-620 = test system: SW-620
TK-10 = test system: TK-10
U-251 = test system: U-251
UACC-257 = test system: UACC-257
UACC-62 = test system: UACC-62
UO-31 = test system: UO-31
XF498 = test system: XF498
DMS-273 = test system: DMS-273

CC(C)Cc1ccc(C(C)/C=C2\CCC(CN3CCOCC3)C2=O)cc1 (stereo not given)
GI50 (786-0): 1.69 µM (inactive)
GI50 (A498): 12.5 µM (inactive)
GI50 (A549): 18.6 µM (inactive)
GI50 (ACHN): 16 µM (inactive)
GI50 (BT-549): 17.9 µM (inactive)
GI50 (CAKI-1): 18 µM (inactive)
GI50 (CCRF-CEM): 1.3 µM (inactive)
GI50 (COLO 205): 9.44 µM (inactive)
GI50 (DLD-1): 2.71 µM (inactive)
GI50 (DMS-114): 13.4 µM (inactive)
GI50 (DU-145): 13.7 µM (inactive)
GI50 (EKVX): 18 µM (inactive)
GI50 (HCC 2998): 11.6 µM (inactive)
GI50 (HCT-116): 5.26 µM (inactive)
GI50 (HCT-15): 2.94 µM
GI50 (HL-60): 2.69 µM (inactive)
GI50 (HOP-18): 7.87 µM (inactive)
GI50 (HOP-62): 11.7 µM (inactive)
GI50 (HOP-92): 15.5 µM (inactive)
GI50 (HT-29): 6.73 µM (inactive)
GI50 (Hs-578T): 3.6 µM (inactive)
GI50 (IGROV-1): 7.71 µM (inactive)
GI50 (K562): 1.92 µM (inactive)
GI50 (KM-20L2): 16.3 µM (inactive)
GI50 (KM12): 5.47 µM (inactive)
GI50 (LOX IMVI): 2.33 µM (inactive)
GI50 (LXFL 529): 1.64 µM (inactive)
GI50 (M14): 5.02 µM (inactive)
GI50 (M19-MEL): 10.2 µM (inactive)
GI50 (MCF7): 4.31 µM (inactive)
GI50 (MDA-MB-231): 1.73 µM (inactive)
GI50 (MDA-MB-435): 6.92 µM (inactive)
GI50 (MDA-N): 12.1 µM (inactive)
GI50 (MOLT-4): 1.64 µM (inactive)
GI50 (Malme-3M): 13.5 µM (inactive)
GI50 (NCI-H226): 20.3 µM (inactive)
GI50 (NCI-H23): 12.9 µM (inactive)
GI50 (NCI-H460): 14.8 µM (inactive)
GI50 (NCI-H522): 5.62 µM (inactive)
GI50 (NCI/ADR-RES): 3.93 µM (inactive)
GI50 (OVCAR-3): 4.1 µM (inactive)
GI50 (OVCAR-4): 17.7 µM (inactive)
GI50 (OVCAR-5): 20.7 µM (inactive)
GI50 (OVCAR-8): 3.61 µM (inactive)
GI50 (PC-3): 12.3 µM (inactive)
GI50 (RPMI-8226): 0.665 µM (active)
GI50 (RXF 393): 8.43 µM (inactive)
GI50 (RXF 631): 18.1 µM (inactive)
GI50 (SF-268): 6.87 µM (inactive)
GI50 (SF-295): 15.3 µM (inactive)
GI50 (SF-539): 12.5 µM (inactive)
GI50 (SK-MEL-28): 9.12 µM (inactive)
GI50 (SK-MEL-2): 16.6 µM (inactive)
GI50 (SK-MEL-5): 10.4 µM (inactive)
GI50 (SK-OV-3): 18.8 µM (inactive)
GI50 (SN12C): 9.27 µM (inactive)
GI50 (SNB-19): 8.51 µM (inactive)
GI50 (SNB-75): 8.34 µM (inactive)
GI50 (SNB-78): 20.9 µM (inactive)
GI50 (SR): 2.08 µM (inactive)
GI50 (SW-620): 3 µM (inactive)
GI50 (TK-10): 5.82 µM (inactive)
GI50 (U-251): 13.5 µM (inactive)
GI50 (UACC-257): 7.14 µM (inactive)
GI50 (UACC-62): 12.5 µM (inactive)
GI50 (UO-31): 8.73 µM (inactive)
GI50 (XF498): 16.4 µM (inactive)

CC(=O)O[C@H]1[C@H](O[C@H]2CC[C@]34C[C@]35CC[C@]3(C)[C@@H]([C@@]6(C)CC[C@@H](C(C)(C)O)O6)[C@@H](O)C[C@@]3(C)[C@@H]5C[C@H](O[C@@H]3O[C@H](CO)[C@@H](O)[C@H](O)[C@H]3O)[C@H]4C2(C)C)OC[C@@H](O)[C@@H]1O
GI50 (786-0): 42.6 µM (inactive)
GI50 (A498): > 100 µM (inactive)
GI50 (A549): > 100 µM (inactive)
GI50 (ACHN): > 100 µM (inactive)
GI50 (CAKI-1): > 100 µM (inactive)
GI50 (CCRF-CEM): 31.6 µM (inactive)
GI50 (COLO 205): 46.8 µM (inactive)
GI50 (DLD-1): 71.1 µM (inactive)
GI50 (DMS-114): 66.2 µM (inactive)
GI50 (DMS-273): 44.6 µM (inactive)
GI50 (EKVX): > 100 µM (inactive)
GI50 (HCC 2998): > 100 µM (inactive)
GI50 (HCT-116): > 100 µM (inactive)
GI50 (HCT-15): 42.2 µM
GI50 (HL-60): 35.6 µM (inactive)
GI50 (HOP-18): > 100 µM (inactive)
GI50 (HOP-62): > 100 µM (inactive)
GI50 (HOP-92): > 100 µM (inactive)
GI50 (HT-29): 85.5 µM (inactive)
GI50 (IGROV-1): > 100 µM (inactive)
GI50 (K562): 45.3 µM (inactive)
GI50 (KM-20L2): 69.7 µM (inactive)
GI50 (KM12): > 100 µM (inactive)
GI50 (LOX IMVI): 44 µM (inactive)
GI50 (LXFL 529): 74.8 µM (inactive)
GI50 (M14): 54.6 µM (inactive)
GI50 (M19-MEL): 78.5 µM (inactive)
GI50 (MOLT-4): > 100 µM (inactive)
GI50 (Malme-3M): > 100 µM (inactive)
GI50 (NCI-H226): > 100 µM (inactive)
GI50 (NCI-H23): > 100 µM (inactive)
GI50 (NCI-H460): 71 µM (inactive)
GI50 (NCI-H522): > 100 µM (inactive)
GI50 (OVCAR-3): > 100 µM (inactive)
GI50 (OVCAR-4): > 100 µM (inactive)
GI50 (OVCAR-5): 72.6 µM (inactive)
GI50 (OVCAR-8): > 100 µM (inactive)
GI50 (RPMI-8226): 52.6 µM (inactive)
GI50 (RXF 393): > 100 µM (inactive)
GI50 (RXF 631): > 100 µM (inactive)
GI50 (SF-268): > 100 µM (inactive)
GI50 (SF-295): > 100 µM (inactive)
GI50 (SF-539): 40.4 µM (inactive)
GI50 (SK-MEL-28): > 100 µM (inactive)
GI50 (SK-MEL-2): > 100 µM (inactive)
GI50 (SK-MEL-5): > 100 µM (inactive)
GI50 (SK-OV-3): > 100 µM (inactive)
GI50 (SN12C): > 100 µM (inactive)
GI50 (SNB-19): > 100 µM (inactive)
GI50 (SNB-75): > 100 µM (inactive)
GI50 (SNB-78): > 100 µM (inactive)
GI50 (SW-620): 25.4 µM (inactive)
GI50 (TK-10): > 100 µM (inactive)
GI50 (U-251): 55 µM (inactive)
GI50 (UACC-257): > 100 µM (inactive)
GI50 (UACC-62): > 100 µM (inactive)
GI50 (UO-31): > 100 µM (inactive)
GI50 (XF498): > 100 µM (inactive)

From ChEMBL document CHEMBL1201862, “PubChem BioAssay data set” (2004)
